Assay results: US20220196635A1, “Fibrosis Assay” (Georgia Tech Research Corporation, priority 2020, published 2022)

Experiments:
[1] = system: NHLF cells and diseased IPF cells (primary human lung fibroblasts) in fibrin scaffold; assay: Microscale cell-mediated fibrinolysis assay (ATPS-printed fibroblast-laden fibrin scaffolds, brightfield pixel intensity); format: cell-based; details: NHLF cells
Method: A stock solution of DEX (20% w/w dextran T500; Sigma) was prepared in phosphate buffered saline (PBS) on a rocker overnight. A stock solution of PEG (6% w/w, 35 k MW; Sigma) was prepared in fully supplemented culture media with 10% deionized water to balance osmolality. Both stock solutions were passed through a 0.22 um sterilizing syringe filter before storage. PEG working solutions were stored for up to 2 weeks at 4° C. Thrombin (Human Alpha Thrombin; Enzyme Research Labs) was also added to the PEG solution at a concentration of 0.1 U/mL immediately preceding experiments. Fibrinogen-DEX solutions were prepared by diluting fibrinogen stock solution (human fibrinogen 3; Enzyme Research Labs) to a final concentration of 4 mg/mL in a sterile solution of 4% 10×DMEM, 15% DEX stock solution (to a final concentration of 3% dextran), and 50% cell suspension in growth media. For all experiments excluding cell concentration evaluation, the cell suspension was diluted for 1000 cells per microliter in the final fibrinogen-DEX solution.
Normal human lung fibroblasts (NHLF lot #0000580583; […] Cells were passaged at 80-90% confluence and were sub-cultured in 1:3 ratios by trypsinization. When at the desired confluence, cells were washed with PBS and 0.05% trypsin solution was added to the flask. Cells were incubated for 2 min, diluted with fibroblast growth media, and then harvested and centrifuged (200× g, 5 min) in a conical tube. The supernatant was aspirated and the cell pellet was re-suspended in serum-free culture media. When used in fibrin degradation experiments, cells were re-suspended at 2× the final desired concentration (1000 cells/ul unless otherwise indicated). All experiments were conducted with cells at or below passage 12. In all experiments, media was changed every 48 hours and any media additives (plasminogen, TGF-β1, drugs, etc.) were included.
Working solutions of PEG with 0.1 U/mL of thrombin were warmed to 37° C. and pipetted into a 96-well plate. For production of droplets, fibrinogen-DEX solutions with cell suspension were maintained at 37° C. and pipetted directly into the PEG-thrombin media using either a manual pipette or a semi-automated 96-channel pipette (Viaflo-96; Integra). All assays utilized a volume of 1 μl unless otherwise noted. Following dispensing of the DEX phase, the plates were placed in an incubator at 37° C. for 30 min to allow the thrombin to enzymatically crosslink the fibrinogen into a fibrin matrix (FIG. 1A). The PEG-enriched media was then washed four times by removing, then replacing half of the media with PEG-free media. When applicable, the final media addition was supplemented with stimuli as detailed in Example 5 below. For the duration of each experiment, assay plates were imaged every 2 hours at 4× with an automated cell culture monitoring system (Incucyte S3; Essen Biosystems). After one day of culture, plasminogen (50 μg/mL) (Human Glu-Plasminogen; Enzyme Research Labs) was added as a 10× concentrated solution to each well in order to initiate assay degradation (FIG. 1B), unless otherwise noted for specific conditions. Fresh plasminogen was included with each subsequent media addition. Positive controls with active plasmin (1 U/ml) (Human Plasmin; Enzyme Research Labs) and negative controls without plasminogen were included in each experiment. As cells activated plasminogen, the fibrin scaffold progressively degraded as illustrated in FIG. 1C.
After each experiment, brightfield images for every time point were downloaded in jpeg format from the automated cell culture monitoring system. Python's OpenCV library was implemented for the masking approach illustrated in FIG. 2A. First, a threshold was set at 50% of the maximum intensity (128 for 8-bit integer pixel values) in order to isolate the darker pixels of semi-opaque fibrin hydrogel from the background of the image. A closing morphological filter with a 25×25 kernel was then applied to each mask in order to remove noise. […]

[2] = system: human primary lung fibroblasts (NHLF, IPF) in fibrin micro-scaffolds; assay: Contracting scar-in-a-drop fibroplasia assay (final projected area of cell-ECM spheroids); format: cell-based
Method: Human primary lung fibroblasts were used in all experiments presented in this paper. Unless otherwise noted, experiments utilized normal human lung fibroblasts (NHLF B lot #0000580583; Lonza) from a person with a history of smoking. For experiments evaluating donor variability, the following cells were utilized: NHLF A (NHLF lot #0000608197; Lonza) from a person, IPF A (IPF lot #0000627840; Lonza) from a person, and IPF B (IPF lot #6F5002; Lonza) from a person. All cells were cultured in fibroblast growth media (FGM; Lonza). Cells were passaged at 80-90% confluence and were sub-cultured in 1:3 ratios by trypsinization. When at the desired confluence, cells were washed with PBS and 0.05% trypsin solution was added to the flask. Cells were incubated for 2 min, and then harvested and centrifuged ([…], 5 min) in a conical tube. The supernatant was aspirated and the cell pellet was re-suspended in FBS-free culture media. When used in fibrin degradation experiments, cells were re-suspended at 2× the final desired concentration (2500 cells/ul unless otherwise indicated). To promote collagen production and contraction in addition to fibrin degradation, serum (bovine or human) were added at 2% or higher up to about 10%. Higher cell densities (about 2500 cells/ul and higher up to about 10,000 cells/ul) also promote collagen production. All experiments were conducted with cells at or below passage 8 except for high passage experiments conducted at passage 12. In all experiments, media was changed every 48 hours and any media additives (plasminogen, TGF-β1, drugs, etc.,) were included.
ATPS printing of fibrin micro-scaffolds has previously described above. Briefly, working solutions of PEG with 0.1 U/mL of thrombin were warmed to 37° C. and pipetted into a 96-well plate. For production of droplets, fibrinogen-DEX solutions with cell suspension were maintained at 37° C. and 4 μl per assay (unless otherwise noted) was pipetted directly into the PEG-thrombin media using a semi-automated repeater pipette (Repeater E3X; Eppendorf). Following dispensing of the DEX phase, the plates were placed in an ambient air incubator at 37° C. for 30 min to allow the thrombin to enzymatically crosslink the fibrinogen into a fibrin matrix (FIG. 6A). The PEG-enriched media was removed using a 12-channel micropipette and replaced with 100 μl of fully supplemented media in each well. When applicable, this media addition was supplemented with stimuli as detailed in example 17 below. For the duration of each experiment, assay plates were imaged every 2 hours at 4× with an automated cell culture monitoring system (Incucyte S3; Sartorius). As the assay proceeded, the fibroblasts progressively remodeled the fibrin scaffold as illustrated in FIG. 6C.
After each experiment, the final projected areas of the cell-ECM spheroids were determined from brightfield images taken at the final time point using a benchtop imaging system (2× objective; EVOS M7000; ThermoFisher). These images were then segmented through a process of pixel classification, thresholding, and morphological filtering in order to isolate the cell-ECM construct area from the background.
Pixel classification implemented Ilastic, a freely available image classification tool developed by the European Molecular Biology Laboratory. Ilastik's pixel classification utility implements a random forest classifier for quick and robust segmentation. In order to train the classifier, 10 characteristic images were selected to include different stages of ECM remodeling. In this step, each individual pixel is assigned a probability for belonging to layers for the background or the cell-ECM construct. Ilastik enables interactive training of the random forest classifier via user annotations of the training images. […]

## TGF-β1: Human Recombinant TGF-β1 (Peprotech), pro-fibrotic, anti-fibrinolytic stimulus
[1]; higher concentrations of TGF-β1
  maximum slope of fibrin degradation: no significant changes in slope
[1]; various concentrations of TGF-β1
  50% degradation time / delay before fibrinolysis: longer time delays before fibrinolysis
[2]; TGF-β1 0, 0.5, 2 ng/mL, NHLF
  projected area of the final contracted cell-ECM spheroid: significant dose-dependent increase
[2]; TGF-β1 10 ng/mL (highest concentration)
  contraction of cell-ECM construct: did not contract within the duration of the experiment
[2]; TGF-β1 stimulation, kernel density estimates (FIG. 12A)
  50% contraction time: increases in both 50% contraction time and final assay area
